Test results published in US9512140B2, “(Thieno[2,3-b][1,5]benzoxazepin-4-yl)piperazin-1-yl compounds as dual activity H1 inverse agonists/5-HT2A antagonists” (priority 2011, dated 2016).

Test system: Rats
Assay: Sleep and behavioral monitoring in rats (EEG, EMG, motion)
Assay type: in vivo
Settings: for Rebound Insomnia, Adj. Mean: NREM+REM sleep in 7th-9th hours post-treatment; for Rebound Insomnia, Adj. Mean / REM inhibition, Adj. Mean / Cumulative Total sleep, Adj. Mean / Locomotor Activity Intensity, Adj. Mean: difference from vehicle; for REM inhibition, Adj. Mean: cumulative REM sleep, first 12 hr. post-treatment; for Average Sleep Bout, Adj. Mean / Longest Sleep Bout, Adj. Mean / Cumulative Total sleep, Adj. Mean / Cumulative NREM sleep, Adj. Mean / Locomotor Activity Intensity, Adj. Mean: first 6 hr. post-treatment; for Cumulative Total sleep, Adj. Mean: NREM+REM; for Cumulative NREM sleep, Adj. Mean: adjusted difference from vehicle controls
Experimental: The compound of the present invention is tested in rats for its ability to increase the amount of sleep or decrease sleep interruption or both without undesired effects such as inhibition of REM sleep, waking motor impairment, and/or rebound insomnia. Test animals are continuously monitored by electro-encephalograms (EEG), electromyograms (EMG), and motion to measure cumulative nonREM sleep, cumulative total sleep, average sleep bout duration, longest sleep bout duration, rebound insomnia. REM sleep inhibition and locomotor activity intensity during wakefulness. Methods for such studies are known in the art (see for example methods described in Edgar D M, Seidel W F. Modafinil induces wakefulness without intensifying motor activity or subsequent rebound hypersomnolence in the rat. J Pharmacology & Experimental Therapeutics 1997; 283: 757-769; van Gelder R N, Edgar D M, Dement W C. Real-time automated sleep scoring: validation of a microcomputer-based system for mice. Sleep 1991, 14: 48-55; and Gross B A, Walsh C M, Turakhia A A, Booth V, Mashour G A, Poe G R. Open-source logic-based automated sleep scoring software using electrophysiological recordings in rats. J Neurosci Methods. 2009; 184(1):10-8.) Studies are conducted as follows:
Adult, male Wistar rats (approximately 270-300 g at time of surgery) are surgically fitted for chronic recording of EEG, EMG, and motion as follows: Rats are surgically prepared with a cranial implant consisting of four stainless steel screws for EEG recording (two frontal [3.9 mm anterior from bregma, and ±2.0 mm mediolaterally] and two occipital [6.4 mm posterior from bregma, ±5.5 mm mediolaterally]), and with two Teflon-coated stainless steel wires for EMG recording (positioned under the nuchal trapezoid muscles). All leads are soldered to a miniature connector (Microtech, Boothwyn, Pa.) prior to surgery. The implant assembly is affixed to the skull by the combination of the stainless steel EEG recording screws, cyanoacrylate applied between the implant connector and skull, and dental acrylic. Locomotor activity is monitored via a miniature transmitter (Minimitter PDT4000G, Philips Respironics, Bend, Oreg.) surgically placed into the abdomen. At least 3 weeks are allowed for recovery.
Each rat is housed individually within a microisolator cage modified with an inserted polycarbonate filter-top riser to allow more vertical headroom. A flexible cable that minimally restricts movement is connected at one end to a commutator afixed to the cage top and at the other end to the animal's cranial implant. Each cage is located within separate, ventilated compartments of a stainless steel sleep-wake recording chamber. Food and water are available ad libitum and the ambient temperature is maintained at about 23±1° C. A 24-hr light-dark cycle (LD 12:12) using fluorescent light is maintained throughout the study. Relative humidity averages approximately 50%. Animals are undisturbed for at least 30 hrs before and after each treatment.
The vehicle (placebo, methylcellulose 15 centipoise 0.25% in water) or one of the test compound dose levels is administered orally at 1 mL/kg pseudo-randomly such that no rat receives the same treatment twice, and no rat receives more than two of the 8 treatments in any one study. Each rat is removed from its cage for about a minute to be weighed and treated. At least 6 days “washout” period precede and follow each treatment. […]

Compound: Cc1ccc2c(c1)Oc1sc(C)cc1C(N1CCN(CC(C)(C)C(=O)O)CC1)=N2 [Example 3, 3-[4-(2,8-Dimethylthieno[2,3-b][1,5]benzoxazepin-4-yl)piperazin-1-yl]-2,2-dimethyl-propanoic acid; 4-methylbenzenesulfonic acid]
- Rebound Insomnia, Adj. Mean (0.025 mg/kg PO): 0.3 min
- REM inhibition, Adj. Mean (0.025 mg/kg PO): -2.7 min
- Average Sleep Bout, Adj. Mean (0.025 mg/kg PO): 1.0 n-fold increase over vehicle controls
- Longest Sleep Bout, Adj. Mean (0.025 mg/kg PO): 1.0 n-fold increase over vehicle controls
- Cumulative Total sleep, Adj. Mean (0.025 mg/kg PO): -2.3 min
- Cumulative NREM sleep, Adj. Mean (0.025 mg/kg PO): 1.3 min
- Locomotor Activity Intensity, Adj. Mean (0.025 mg/kg PO): −0.1 LMA counts per minute of EEG-defined wakefulness
- Rebound Insomnia, Adj. Mean (0.25 mg/kg PO): 1.0 min
- REM inhibition, Adj. Mean (0.25 mg/kg PO): -1.5 min
- Average Sleep Bout, Adj. Mean (0.25 mg/kg PO): 1.6 n-fold increase over vehicle controls
- Longest Sleep Bout, Adj. Mean (0.25 mg/kg PO): 1.6 n-fold increase over vehicle controls
- Cumulative Total sleep, Adj. Mean (0.25 mg/kg PO): 33.5 min
- Cumulative NREM sleep, Adj. Mean (0.25 mg/kg PO): 34.3 min
- Locomotor Activity Intensity, Adj. Mean (0.25 mg/kg PO): −1.6 LMA counts per minute of EEG-defined wakefulness
- Rebound Insomnia, Adj. Mean (0.5 mg/kg PO): -0.3 min
- REM inhibition, Adj. Mean (0.5 mg/kg PO): 0.7 min
- Average Sleep Bout, Adj. Mean (0.5 mg/kg PO): 1.6 n-fold increase over vehicle controls
- Longest Sleep Bout, Adj. Mean (0.5 mg/kg PO): 2.1 n-fold increase over vehicle controls
- Cumulative Total sleep, Adj. Mean (0.5 mg/kg PO): 21.7 min
- Cumulative NREM sleep, Adj. Mean (0.5 mg/kg PO): 21.7 min
- Locomotor Activity Intensity, Adj. Mean (0.5 mg/kg PO): 0.0 LMA counts per minute of EEG-defined wakefulness
- Rebound Insomnia, Adj. Mean (1 mg/kg PO): -3.8 min
- REM inhibition, Adj. Mean (1 mg/kg PO): 0.1 min
- Average Sleep Bout, Adj. Mean (1 mg/kg PO): 1.7 n-fold increase over vehicle controls
- Longest Sleep Bout, Adj. Mean (1 mg/kg PO): 2.2 n-fold increase over vehicle controls
- Cumulative Total sleep, Adj. Mean (1 mg/kg PO): 30.8 min
- Cumulative NREM sleep, Adj. Mean (1 mg/kg PO): 31.9 min
- Locomotor Activity Intensity, Adj. Mean (1 mg/kg PO): −2.5 LMA counts per minute of EEG-defined wakefulness
- Rebound Insomnia, Adj. Mean (3 mg/kg PO): -1.3 min
- REM inhibition, Adj. Mean (3 mg/kg PO): -4.2 min
- Average Sleep Bout, Adj. Mean (3 mg/kg PO): 1.5 n-fold increase over vehicle controls
- Longest Sleep Bout, Adj. Mean (3 mg/kg PO): 1.9 n-fold increase over vehicle controls
- Cumulative Total sleep, Adj. Mean (3 mg/kg PO): 26.9 min
- Cumulative NREM sleep, Adj. Mean (3 mg/kg PO): 29.2 min
- Locomotor Activity Intensity, Adj. Mean (3 mg/kg PO): −2.6 LMA counts per minute of EEG-defined wakefulness
- Rebound Insomnia, Adj. Mean (10 mg/kg PO): 0.4 min
- REM inhibition, Adj. Mean (10 mg/kg PO): -12.1 min
- Average Sleep Bout, Adj. Mean (10 mg/kg PO): 1.7 n-fold increase over vehicle controls
- Longest Sleep Bout, Adj. Mean (10 mg/kg PO): 1.9 n-fold increase over vehicle controls
- Cumulative Total sleep, Adj. Mean (10 mg/kg PO): 32.8 min
- Cumulative NREM sleep, Adj. Mean (10 mg/kg PO): 36.7 min
- Locomotor Activity Intensity, Adj. Mean (10 mg/kg PO): −3.7 LMA counts per minute of EEG-defined wakefulness
- change in awake time following treatment, dose response curve (FIG. 2) (rat): does not result in rebound insomnia
- change in cumulative REM sleep time, dose response curve (FIG. 1) (rat): does not inhibit REM sleep
- change in distances moved during periods of wakefulness, dose response curve (FIG. 3) (rat): does not inhibit or stimulate normal activity
